Results: patent US12600725B2 (Memorial Sloan-Kettering Cancer Center, priority 2013, dated 2026)
“Also recorded” adds a separate entry of the source. Like-named read-outs stand apart in the source and are kept apart here.

Key:
[1] = tested on: PANC1 EGFR-overexpressing cells; settings: Mol Cancer Ther 2006; 5:2051-2059; cited from earlier work
Hsp90α [2] = biological target: T1, Hsp90α (Homo sapiens, UniProt P07900); assay: biochemical
Trap-1 = biological target: T2, Trap-1 (Homo sapiens, UniProt Q12931); settings: read-out: TRAP-1
T2 sequence (Q12931 60-704): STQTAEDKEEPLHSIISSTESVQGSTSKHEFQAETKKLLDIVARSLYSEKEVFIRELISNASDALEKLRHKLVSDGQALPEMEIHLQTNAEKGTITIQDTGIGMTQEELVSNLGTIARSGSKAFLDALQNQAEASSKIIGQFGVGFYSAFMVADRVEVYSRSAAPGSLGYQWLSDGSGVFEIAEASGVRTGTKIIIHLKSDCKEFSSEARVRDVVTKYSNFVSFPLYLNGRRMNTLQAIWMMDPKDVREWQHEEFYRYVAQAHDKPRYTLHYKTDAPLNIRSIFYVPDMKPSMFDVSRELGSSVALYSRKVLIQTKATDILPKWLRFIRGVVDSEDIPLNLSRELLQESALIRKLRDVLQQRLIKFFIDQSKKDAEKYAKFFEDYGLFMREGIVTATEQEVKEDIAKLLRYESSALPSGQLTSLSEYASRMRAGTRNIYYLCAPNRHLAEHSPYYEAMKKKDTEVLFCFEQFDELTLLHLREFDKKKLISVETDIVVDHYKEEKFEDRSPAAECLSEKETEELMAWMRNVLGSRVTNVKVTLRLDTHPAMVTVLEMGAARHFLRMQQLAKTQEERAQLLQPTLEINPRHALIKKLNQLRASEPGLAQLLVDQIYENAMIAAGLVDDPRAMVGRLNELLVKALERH

Hsp90β = Hsp90β (Homo sapiens, UniProt P08238)
97 kinases = assay: Kinase screen (Discoverx scanEDGE / KINOMEscan); format: binding; settings: tested at 10 uM
Grp94 = Grp94 (Canis lupus familiaris, UniProt P41148); settings: read-out: Grp94; FP competition, 6 nM Cy3B-GM, 10 nM protein, 4° C. for 24 h
[3] = tested on: Human Umbilical Vein Endothelial Cells (HUVECs); assay: Angiogenesis studies with HUVEC cells; format: cell-based
Hsp90α [4] = biological target: T1, Hsp90α
[5] = tested on: TLR9 ligand CpG DNA induced TNF-α production in RAW 264.7 macrophages; assay: TNFα ELISA, CpG DNA stimulated macrophages; format: cell-based, mouse
PANC-1 cells = assay: Apoptosis assessment (Annexin V / 7AAD); format: cell-based
Excerpt: Annexin V Apoptosis with 7-AAD has been specifically designed for the identification of apoptotic and necrotic cells. Annexin V (or Annexin A5) is a member of the annexin family of intracellular proteins that binds to phosphatidylserine (PS) in a calcium-dependent manner. PS is normally only found on the intracellular leaflet of the plasma membrane in healthy cells, but during early apoptosis, membrane asymmetry is lost and PS translocates to the external leaflet. Fluorochrome-labeled Annexin V can then be used to specifically target and identify apoptotic cells. Annexin V binding alone cannot differentiate between apoptotic and necrotic cells. To help distinguish between the necrotic and apoptotic cells 7-amino-actinomycin D (7-AAD) is used. Early apoptotic cells will exclude 7-AAD, while late stage apoptotic cells will stain positively, due to the passage of these dyes into the nucleus where they bind to DNA. 7-AAD (7-amino-actinomycin D) has a high DNA binding constant and is efficiently excluded by intact cells. It is useful for DNA analysis and dead cell discrimination during flow cytometric analysis. When excited by 488 laser light, 7-AAD fluorescence is detected in the far red range of the spectrum (650 nm long-pass filter).
Cell cycle and apoptosis assessment. Cell cycle and apoptosis were assessed by flow cytometry after single staining with propidium iodide (PI, BD Pharmingen) or double staining with AnnexinV-FITC (BD Pharmingen) and 7AAD (BD Pharmingen), respectively. Specifically, for cell cycle analysis, cells were washed twice with cold PBS and fixed in 70% ethanol overnight at 4° C. Fixed cells were collected at 1800 rpm for 10 min and stained with PBS containing PI and DNase-free RNase A (Sigma-Aldrich) for 1 h at room temperature in the dark. DNA content was measured by BD LSRII flow cytometer and cell further analyzed using program of cell cycle analysis in FloJo (Ashland, OR). The chicken erythrocyte nuclei singlets (CEN, Biosure) were used as the reference. For apoptosis assessment, live cells were collected, washed twice with cold PBS, resuspended in Binding Buffer and stained with AnnexinV-FITC and 7AAD for 15 min at room temperature in the dark. Signals from FL1 and FL3 channels were collected by MACSQuant analyzer and further analyzed using FloJo. Early apoptosis was defined as AnnexinV+/7AAD−, and late apoptosis was observed as AnnexinV+/7AAD+.

[6] = tested on: Toll-like receptor 9 (TLR9) trafficking in HEK293 cells transfected with HA-TLR9; assay: TLR9-trafficking assay; format: cell-based, human; settings: 24 h treatment
Method: TLR^9-trafficking assay (Yang, Y. et al. Heat shock protein gp96 is a master chaperone for toll-like receptors and is important in the innate function of macrophages. Immunity 26, 215-26 (2007)). HEK 293T cells were transfected with pUNO-hTLR9-HA (Invivogen) using X-tremgene HP (Roche) according to the manufacturer's instructions. At 24 hrs post-transfection, cells were split onto cell culture chamber slides (Lab-Tek). Cells were then treated for 24 hrs with indicated compound at varying concentrations. After treatment, cells were fixed for 20 min in 4% paraformaldehyde in PBS, permeabilized with 0.1% Triton-X 100 in PBS for 10 min, blocked with 3% BSA in PBS for 30 min, followed by staining for 1 hr with an anti-HA antibody (Abcam, ab9110) or a normal rabbit IgG. Cells were washed with PBS, stained with an anti-rabbit-Cy3 antibody (Invitrogen) and finally mounted in the dark at 4° C. with Prolong Gold Antifade reagent (with DAPI). Cells were visualized under a confocal microscope (Leica Upright Confocal SP5). Fluorescence intensity was quantified using MetaMorph Microscopy Automation and Image Analysis Software (Molecular Devices Inc.) and normalized to the cell number.

[7] = tested on: Hsp70 induction in HEK293 cells; assay: Hsp70 induction in HA-TLR9 transfected HEK293 cells; format: cell-based, human; settings: 24 h
Method: Cell fractionation and immunoblotting. Cells were either treated with DMSO (vehicle) or indicated compounds for 24 hr and lysed in RIPA buffer (50 mM Tris-HCl, pH 7.4, 150 mM NaCl, 0.5% sodium deoxycholate and 0.5% NP40) supplemented with cocktail protease inhibitors (Roche) to produce whole cell lysates. Lysates for cytosol and membrane fractions were harvested using ProteoExtract Subcellular Proteome Extraction Kit (Calbiochem) following the manufacturer's instructions. Protein concentrations were determined using BCA kit (Pierce) according to the manufacturer's instructions. The protein lysates ([…]) were electrophoretically resolved by SDS-PAGE, transferred onto nitrocellulose membranes and probed with the indicated primary antibodies against: HER^2 (Zymed, 28004), Hsp70 (Stressgen, SPA-810), Grp94 (Stressgen, SPA-850), Hsp90α (Abcam, Ab2928), Hsp90β (StressMarq, SMC-107B), Grp78 (Cell Signaling, 3183), Raf-1 (Santa Cruz, sc-133), phospho-Raf-1 (Cell Signaling, 9421), MEK1/2 (Cell Signaling, 8727), phospho-MEK1/2 (Cell Signaling, 9154), ERK1/2 (Cell Signaling, 4695), phospho-ERK1/2 (Cell Signaling, 4370), AKT (Cell Signaling, 9272), GM130 (Cell Signaling, 2296), Flotillin 2 (Cell Signaling, 3436), Histone H4 (Cell Signaling, 2592), Histone H1 (Santa Cruz, sc-8030), Caspase 3 (Cell Signaling, 9665), cleaved PARP (Promega, G7341), a-tubulin (Sigma, T5168) and 3-actin (Sigma, A1978). After washing off the excess antibodies, the membranes were incubated with the corresponding horseradish peroxidase (HRP) conjugated secondary antibody. Blots were visualized by autoradiography using the Enhanced Chemiluminescence Detection System (GE Healthcare) according to manufacturer's instructions. […]
TLR^9-trafficking assay (Yang, Y. et al. Heat shock protein gp96 is a master chaperone for toll-like receptors and is important in the innate function of macrophages. Immunity 26, 215-26 (2007)). […] Fluorescence intensity was quantified using MetaMorph Microscopy Automation and Image Analysis Software (Molecular Devices Inc.) and normalized to the cell number.

[8] = tested on: IGF-II secretion by differentiated C2C12 cells; assay: C2C12 differentiation and IGF-II secretion assay; format: cell-based, mouse; settings: 24 hrs treatment
Excerpt: C2C12 differentiation and IGF-II secretion assay (Wanderling, S. et al. GRP94 is essential for mesoderm induction and muscle development because it regulates insulin-like growth factor secretion. Mol. Biol. Cell 18, 3764-75 (2007); Ostrovsky, O., Ahmed, N.T. & Argon, Y. The chaperone activity of GRP94 toward insulin-like growth factor II is necessary for the stress response to serum deprivation. Mol. Biol. Cell 20, 1855-64 (2009)). C2C12 cells were maintained and cultured in DMEM in the presence of 10% FBS and 1% penicillin/streptomycin (Culture medium). C2C12 is an immortal line of mouse skeletal myoblasts originally derived from satellite cells from the thigh muscle of a two month old female mouse donor. These cells differentiate well into myocytes under appropriate culture conditions. […] Secreted IGF-II was quantified by using IGF-II mouse ELISA kit (Abcam, AB100696) according to the manufacturer's instructions. […] The bound IGF-II was detected with a biotinylated anti-IGF-II antibody. After the sequential incubation with HRP conjugated streptavidin, TMB One-step substrate reagent and the Stop solution, the absorbance was measured at 450 nm. The secreted IGF-II was quantified against a standard curve generated with recombinant IGF-II provided by the kit.

[9] = tested on: HER2 at the plasma membrane of SKBr3 cells; assay: Immunofluorescence of HER2 architecture at the plasma membrane; format: cell-based
Method: We next investigated the biological significance of the unique association of HER^2 with Grp94 at the plasma membrane of SKBr3 cells. Because the Grp94 inhibitors described here target the ATP-binding pocket of Grp94, they affect Grp94 chaperone activity. Therefore we hypothesized that Grp94 may act on HER^2 at the plasma membrane to stabilize the protein and to regulate its function.
Immunofluorescence. Cells were seeded and grown onto culture slides (BD Falcon) for 24 hrs. After washing with cold PBS, cells were fixed by treating at 4° C. for 20 min with 4% paraformaldehyde in PBS, permeabilized with 0.1% Triton X-100 in PBS containing 10% FBS for 10 min, and blocked with 2% BSA for 1 hr. After washing for four times with PBS, primary antibodies were added onto the chambers and cell were incubated overnight at 4° C., washed again with PBS followed by incubation with the secondary antibody for 1 hr at room temperature. Cell were washed and then mounted and observed under microscope (Leica Upright Confocal SP5). The primary antibodies used in the assay are against: HER^2 (Zymed, 28004), Grp94 (Stressgen, SPA-850), Hsp70 (Stressgen, SPA-810), LAMP1-FITC (Abcam, ab25406), EEA1 (Abcam, ab70521), 58K Golgi-FITC (Abcam, ab27043) and Calnexin (BD, 610523).

[10] = tested on: Hsp70 induction and AKT degradation (cytosolic Hsp90 hallmarks) in C2C12 cells; assay: Western blot of Hsp70 induction and AKT degradation in C2C12 cells; format: cell-based, mouse; settings: 24 hrs
Method: Cell fractionation and immunoblotting. Cells were either treated with DMSO (vehicle) or indicated compounds for 24 hr and lysed in RIPA buffer (50 mM Tris-HCl, pH 7.4, 150 mM NaCl, 0.5% sodium deoxycholate and 0.5% NP40) supplemented with cocktail protease inhibitors (Roche) to produce whole cell lysates. Lysates for cytosol and membrane fractions were harvested using ProteoExtract Subcellular Proteome Extraction Kit (Calbiochem) following the manufacturer's instructions. Protein concentrations were determined using BCA kit (Pierce) according to the manufacturer's instructions. […] After washing off the excess antibodies, the membranes were incubated with the corresponding horseradish peroxidase (HRP) conjugated secondary antibody. Blots were visualized by autoradiography using the Enhanced Chemiluminescence Detection System (GE Healthcare) according to manufacturer's instructions. For all gels 3-actin was used as a protein loading control.

C2C12 cells = assay: Viability of C2C12 cells visualized by light microscopy; format: cell-based, mouse; settings: 24 h

Hsp90β, sequence (P08238 whole entry): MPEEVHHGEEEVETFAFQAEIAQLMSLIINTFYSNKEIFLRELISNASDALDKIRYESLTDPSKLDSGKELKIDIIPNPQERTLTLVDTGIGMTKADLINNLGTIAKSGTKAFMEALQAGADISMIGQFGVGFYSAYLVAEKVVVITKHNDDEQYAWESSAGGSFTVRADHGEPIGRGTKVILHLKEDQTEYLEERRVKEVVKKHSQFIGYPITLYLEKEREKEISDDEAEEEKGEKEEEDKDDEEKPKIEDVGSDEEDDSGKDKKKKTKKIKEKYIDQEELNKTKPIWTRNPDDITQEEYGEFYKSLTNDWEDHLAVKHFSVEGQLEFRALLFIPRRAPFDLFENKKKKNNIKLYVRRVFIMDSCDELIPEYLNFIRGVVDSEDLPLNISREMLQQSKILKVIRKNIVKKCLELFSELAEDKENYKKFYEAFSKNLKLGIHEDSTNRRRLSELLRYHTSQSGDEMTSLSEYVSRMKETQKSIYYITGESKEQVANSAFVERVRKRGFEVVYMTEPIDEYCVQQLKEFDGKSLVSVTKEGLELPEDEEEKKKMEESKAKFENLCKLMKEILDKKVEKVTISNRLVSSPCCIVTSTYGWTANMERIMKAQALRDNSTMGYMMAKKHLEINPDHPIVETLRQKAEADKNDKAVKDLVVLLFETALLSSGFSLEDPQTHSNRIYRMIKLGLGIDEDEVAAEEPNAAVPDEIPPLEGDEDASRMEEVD
Grp94, sequence (P41148 with tags, fused parts or gaps DELINS287-327GGGG): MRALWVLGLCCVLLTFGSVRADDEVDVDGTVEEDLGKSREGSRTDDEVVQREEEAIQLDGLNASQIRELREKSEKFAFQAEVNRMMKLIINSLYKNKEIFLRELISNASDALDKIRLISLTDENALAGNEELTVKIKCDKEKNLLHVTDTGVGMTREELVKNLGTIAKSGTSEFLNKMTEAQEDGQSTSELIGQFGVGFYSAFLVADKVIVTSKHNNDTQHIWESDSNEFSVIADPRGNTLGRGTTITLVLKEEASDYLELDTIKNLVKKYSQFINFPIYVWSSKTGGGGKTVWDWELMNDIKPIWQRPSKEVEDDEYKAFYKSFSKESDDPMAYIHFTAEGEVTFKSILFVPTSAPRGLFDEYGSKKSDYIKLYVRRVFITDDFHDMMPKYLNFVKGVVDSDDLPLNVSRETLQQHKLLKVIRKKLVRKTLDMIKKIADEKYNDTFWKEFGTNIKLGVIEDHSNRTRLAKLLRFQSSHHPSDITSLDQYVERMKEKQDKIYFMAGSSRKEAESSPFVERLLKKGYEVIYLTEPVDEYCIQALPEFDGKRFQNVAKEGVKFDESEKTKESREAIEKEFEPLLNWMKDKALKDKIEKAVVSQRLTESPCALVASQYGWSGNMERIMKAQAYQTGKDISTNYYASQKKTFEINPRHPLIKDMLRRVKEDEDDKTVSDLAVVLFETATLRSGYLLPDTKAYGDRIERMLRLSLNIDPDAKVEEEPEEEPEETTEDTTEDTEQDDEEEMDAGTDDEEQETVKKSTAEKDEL

## C#Cc1cccc(Nc2ncnc3cc(OCCOC)c(OCCOC)cc23)c1 [erlotinib]
[1]
  reported resistance of PANC1 cells: resistant

## C#CCCCn1c(Sc2ccc(Cl)cc2Cl)nc2c(N)ncnc21 [PU-H39]
Hsp90α [2]; FP competition, 6 nM Cy3B-GM, 10 nM protein, 4° C. for 24 h
  IC50: > 300 µM
Trap-1
  IC50: 145 ± 13.4 µM
Hsp90β
  IC50: > 300 µM
97 kinases
  effect on the tested 97 kinases: no significant effect
Grp94
  IC50: 120 ± 40 nM

## C#CCCCn1cnc(N)c2nc(Sc3ccc(C)cc3C)nc1-2 [PU-H54]
Hsp90α [2]
  IC50: > 250 µM
Trap-1
  IC50: 54.1 ± 4.6 µM
Hsp90β
  IC50: > 250 µM
[3]
  HUVEC cell proliferation: does not affect substantially the cell proliferation
  angiogenic-like transformation of HUVECs induced by Grp94 and by peak 2: able to change the angiogenic-like transformation of HUVECs; also recorded: displays an anti-angiogenic effect; also recorded: inhibited
Hsp90α [4]
  affinity for Hsp90: low affinity
[5]
  CpG DNA induced TNF-α production: inhibited this response in a concentration dependent manner; also recorded: inhibit

## COc1cc(Cc2nc3c(N)nc(F)nc3n2CCOC(C)C)cc(OC)c1OC [PU-29F]
PANC-1 cells
  induction of apoptosis: very little effect
[6]
  TLR9 trafficking: minimally effecting; also recorded: fails to inhibit TLR^9 trafficking
[7]
  Hsp70 induction: induces Hsp70
[8]
  IGF-II secretion: minimally effecting
[9]
  effect on HER2 architecture at the plasma membrane: failed to disturb the membrane HER^2 architecture
[10]
  AKT degradation: degradation of AKT; also recorded: degrade AKT
  Hsp70 induction: dose-dependent increase in Hsp90 levels; also recorded: induce Hsp70

## COC1=C2C[C@@H](C)C[C@H](OC)[C@H](O)[C@@H](C)/C=C(\C)[C@H](OC(N)=O)[C@@H](OC)/C=C\C=C(/C)C(=O)NC(=CC1=O)C2=O [GM, geldanamycin, reference compound]
C2C12 cells
  toxicity to C2C12 cells: cell killing
